Laboratory results from patent US9416353B2, “Covalent tethering of functional groups to proteins and substrates therefor” (Promega Corporation, priority 2004, dated 2016).

Assays:
[1] = tested on: CHO-K1 cells; test: Permeability of cell membrane to substrates (uptake and wash-out, fluorescence); format: cell-based; settings: 100 μM, 60 minutes
Procedure: CHO-K1 Cells (ATCC-CCL61) were cultured in a 1:1 mixture of Ham's F12 nutrients and Dulbecco's modified minimal essential medium supplemented with 10% fetal bovine serum (FBS), 100 U/ml penicillin, and […] streptomycin, in an atmosphere of 95% air and 5% CO2 at 37° C.

[2] = target: DhaA.H272F (Rhodococcus rhodochrous, UniProt P0A3G2, H272F); format: binding; settings: dose dependent, HRP conjugated streptavidin
[3] = tested on: CHO-K1 cells; test: Toxicity of Cl-alkanes, CellTiter-Glo Luminescence Cell Viability Assay; format: cell-based
Procedure: To study the toxicity of Cl-alkanes, CHO-K1 cells were plated in 96 well plates to a density of 5,000 cells per well. […] Viability of the cells was measured with CellTiter-Glo™ Luminescence Cell Viability Assay (Promega) according to the manufacturer's protocol. Generally, 100 μl of CellTiter-Glo™ reagent was added directly to the cells and the luminescence was recorded at 10 minutes using a DYNEX MLX microtiter plate luminometer.

O=C(NCCOCCOCCCCCCCl)c1ccc(-c2c3ccc(=O)cc-3oc3cc(O)ccc23)c(C(=O)O)c1 [N-{2-[2-(6-Chlorohexyloxy)-ethoxy]-ethyl}-fluorescein-5-amide]
crossing of the plasma membrane of CHO-K1 cells [1]: did not cross the plasma membrane

O=C(CCCC[C@@H]1SC[C@@H]2NC(=O)N[C@@H]21)NCCOCCOCCCCCCCl [biotin-C10H21NO2—Cl, N-{2-[2-(6-Chlorohexyloxy)-ethoxy]ethyl}-biotin-amide]
concentration at which binding could be detected [2]: 0.2 µM | toxicity on CHO-K1 cells ([3]; 24 hours of treatment at 100 μM): No toxicity

N-{2-[2-(6-Chlorohexyloxy)-ethoxy]-ethyl}-tetramethylrhodamine-5-(and -6)-amide
toxicity on CHO-K1 cells ([3]; 4 hour treatment at 100 μM (highest concentration tested)): no toxicity
